This is an account of results in patent US20060051316A1, “Remedy” (priority 2002, published 2006).

Assay [1] deals with BMP-2 production of human osteosarcoma cell strain HuO9. Put plainly: Enhancing activity for BMP-2 production, enzyme immunoassay of culture medium. Type of assay: cell-based. The note with it: for Enhancing Activity for BMP-2 Production: HuO9; for Enhancement of BMP-2 production (result in words): HuO9 cells. How it is done:
Human osteosarcoma cell strain HuO9 was suspended in a DMEM medium (manufactured by Bio Whittaker) containing 10% fetal bovine serum (manufactured by Bio Whittaker) so as to have a concentration of 1×10^5 cells/ml. The suspension was put into a 96-well plate in an amount of 0.1 ml per well, and the cells were cultured sterilely. After the cells were cultured for 2 days, the medium was exchanged with a fresh medium. The fucoidan derived from Kjellmaniella crassifolia obtained in item (1) of Reference Example 1 was added thereto as a sample, and the cells were cultured for 48 hours. Next, the concentration of bone morphogenetic protein-2 (BMP-2) in the culture medium was measured with enzyme immunoassay method (BMP-2 Immunoassay: manufactured by GT). The enhancing activity for BMP-2 production was expressed by setting as a control one without addition of the sample, and defining the BMP-2 concentration in the cell culture medium (the amount of BMP-2 production of a cell) as 100%.

The test system of assay [2] is Mouse embryo derived cell strain C3H10T1/2. Put plainly: Induction of differentiation into osteoblasts, alkaline phosphatase activity in cells. The format is cell-based. The note with it: for Alkaline Phosphatase Activity: 7 days, C3H10T1/2, control = 100%, average of two experiments. How it is done: Mouse embryo derived cell strain C3H10T1/2 was suspended in a DMEM medium containing 10% fetal bovine serum so as to have a concentration of 3×10^4 cells/ml. The suspension was put into a 96-well plate in an amount of 0.1 ml per well, and the cells were cultured sterilely. After the cells were cultured for 3 days, the medium was exchanged with a fresh medium. Heparan sulfate, or the Chlorella sulfated polysaccharide fraction CSP-I or CPS-II obtained in Reference Example 4 was added thereto as a sample, and the cells were cultured for 7 days. Subsequently, differentiation of C3H10T1/2 into osteoblasts was determined using an increase of the alkaline phosphatase activity in the cells as an index. The cells were washed once with PBS. One-hundred microliters of a reaction substrate solution (100 mM diethanolamine buffer pH 10.0, 2 mM magnesium chloride, 1 mM p-nitrophenyl phosphoric acid) was added thereto, and the reaction was carried out at 37° C. for 30 minutes. Next, 100 μl of 0.2 N sodium hydroxide was added thereto to stop the reaction, and the amount of p-nitrophenol which was released was determined with an absorbance at 405 nm. The alkaline phosphatase activity when a sample was added was expressed by setting as a control one without addition of the sample, wherein the alkaline phosphatase activity of the control was defined as 100%. The activity indicates an induction activity of differentiation into osteoblasts. The experiments were carried out twice, and the average value was taken.

Setting [3] is: 10 μg/ml, control = 100% (0.083 ng/ml).
Setting [4] is: 100 μg/ml, control = 100% (0.083 ng/ml carrageenans, 0.070 ng/ml low-molecular-weight heparin).
Setting [5] is: 500 μg/ml, control = 100% (0.201 ng/ml for 7-12SFd-F, 0.130 ng/ml for chondroitin sulfate B and pectic acid).
Where [6] appears, read: 1000 μg/ml, control = 100% (0.201 ng/ml for 7-12SFd-F, 0.130 ng/ml for chondroitin sulfate B and pectic acid).
The mark [7] stands for this setting: 10 μg/ml, control = 100% (0.110 ng/ml).
Setting [8] is: 100 μg/ml, control = 100% (0.110 ng/ml).

`O=C(/C=C/c1ccc(O)c(O)c1)O[C@@H]1C[C@](O)(C(=O)O)C[C@@H](O)[C@H]1O` [Chlorogenic Acid, chlorogenic acid]: the “Enhancing Activity for BMP-2 Production” value in assay [1] (88.6 μg/ml, control = 100% (0.041 ng/ml)) is 319.5%; in assay [1] (177.2 μg/ml, control = 100% (0.041 ng/ml)), 320.4%. The “Enhancement of BMP-2 production (result in words)” value (“Enhancement of BMP-2 production” for short) in assay [1] is recorded as “enhance BMP-2 production in a concentration-dependent manner”.
For the compound Heparan sulfate, the “Alkaline Phosphatase Activity” value in assay [2] (10 μg/ml) is recorded as 132.2%; in assay [2] (100 μg/ml) it was 178.0%. In addition, in assay [2] (C3H10T1/2 cells), the “Induction of differentiation into osteoblasts (result in words)” value is “induce differentiation into osteoblasts in a concentration-dependent manner”.
Turning to carrageenan ι, the entries for the “Enhancing Activity for BMP-2 Production” value in assay [1] (setting [3]) and in assay [1] (setting [4]) were 201.2% and 517.5%, respectively. The “Enhancement of BMP-2 production” value in assay [1] is “enhance BMP-2 production in a concentration-dependent manner”.
In the same order, the values of carrageenan κ are 219.3%, 263.3% and “enhance BMP-2 production in a concentration-dependent manner”.
In the same order, the values of carrageenan λ are 359.6%, 485.5% and “enhance BMP-2 production in a concentration-dependent manner”.
In the case of chondroitin sulfate B, the “Enhancing Activity for BMP-2 Production” value was determined as 524.5% in assay [1] (setting [5]) and 846.2% in assay [1] (setting [6]). Moreover, in assay [1], the “Enhancement of BMP-2 production” value is reported as “enhance BMP-2 production in a concentration-dependent manner”.
With dextran sulfate, the figures for the “Enhancing Activity for BMP-2 Production” value in assay [1] (setting [7]) and in assay [1] (setting [8]) were 2789% and 2984%, respectively. The “Enhancement of BMP-2 production” value in assay [1] is listed as “enhance BMP-2 production in a concentration-dependent manner”.
In the same order, the values of heparin are 435.1%, 1339% and “enhance BMP-2 production in a concentration-dependent manner”.
In the case of low-molecular-weight heparin, the “Enhancing Activity for BMP-2 Production” value in assay [1] (setting [4]) is given as 390.0%; in assay [1] (1000 μg/ml, control = 100% (0.070 ng/ml)) it was 807.1%. In addition, the “Enhancement of BMP-2 production” value in assay [1] is recorded as “enhance BMP-2 production in a concentration-dependent manner”.
Turning to pectic acid, the results for the “Enhancing Activity for BMP-2 Production” value in assay [1] (setting [5]) and in assay [1] (setting [6]) were 220.3% and 242.1%, respectively. Also, in assay [1], the “Enhancement of BMP-2 production” value was “enhance BMP-2 production in a concentration-dependent manner”.
